We go through seven molecules from publication PMC11697714, “Strigolactones initiate the formation of haustorium-like structures in Castilleja” (iScience, 2024).

For series [1], the target named is T1, KAI2d15 (Castilleja foliolosa, UniProt A0ABD3DF95).
T1 construct: GST fusion (pGEX-4T-1) in E. coli BL21, GST cut with HRV 3C leaving N-terminal Gly-Pro; synthetic codon-optimised gene; catalytic triad S95, D217, H246; entrance M142, M153, M157; genome GenBank JAVIJP000000000
Put plainly: differential scanning fluorimetry, SYPRO Orange. It is filed as binding. The following applies: 20 mM Tris-HCl, 30 mM NaCl, 1 mM TCEP, pH 7.7.

The target of series [2] is T2, KAI2d15 (Castilleja foliolosa, UniProt A0ABD3DF95, M143V/M154V/M158V, form not given).
T2 construct: GST fusion (pGEX-4T-1) in E. coli BL21, GST cut with HRV 3C leaving N-terminal Gly-Pro; synthetic codon-optimised gene; catalytic triad S95, D217, H246; entrance M142, M153, M157; genome GenBank JAVIJP000000000
T2 sequence (A0ABD3DF95 entry or part of it M143V/M154V/M158V, form open): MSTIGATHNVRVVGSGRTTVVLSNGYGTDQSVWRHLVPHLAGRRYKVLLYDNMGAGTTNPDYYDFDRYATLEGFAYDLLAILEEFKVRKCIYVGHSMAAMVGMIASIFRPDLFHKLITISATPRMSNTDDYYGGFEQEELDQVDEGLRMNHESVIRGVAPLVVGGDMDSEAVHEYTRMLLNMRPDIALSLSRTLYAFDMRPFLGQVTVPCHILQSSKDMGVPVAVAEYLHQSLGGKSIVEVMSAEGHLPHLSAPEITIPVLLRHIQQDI
Put plainly: differential scanning fluorimetry, SYPRO Orange. It is filed as binding. The settings on record: 20 mM Tris-HCl, 30 mM NaCl, 1 mM TCEP, pH 7.7. (In general: In DSF a fluorescence change marks the thermal transition of the protein.)

For a further series, the target named is T3, KAI2d8 (Castilleja foliolosa, UniProt A0ABD3DF32).
T3 construct: GST fusion (pGEX-4T-1) in E. coli BL21, GST cut with HRV 3C leaving N-terminal Gly-Pro; synthetic codon-optimised gene; genome GenBank JAVIJP000000000
T3 sequence (A0ABD3DF32 1-275): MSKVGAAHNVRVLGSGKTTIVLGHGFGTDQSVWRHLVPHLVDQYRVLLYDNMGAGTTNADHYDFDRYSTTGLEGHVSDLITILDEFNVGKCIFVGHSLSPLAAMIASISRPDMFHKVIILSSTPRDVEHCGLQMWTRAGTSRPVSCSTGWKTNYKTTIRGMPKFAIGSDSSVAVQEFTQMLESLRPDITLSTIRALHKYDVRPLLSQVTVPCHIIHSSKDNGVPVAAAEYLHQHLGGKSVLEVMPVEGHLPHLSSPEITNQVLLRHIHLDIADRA
Put plainly: differential scanning fluorimetry, SYPRO Orange. It is filed as binding. The following applies: 20 mM Tris-HCl, 30 mM NaCl, 1 mM TCEP, pH 7.7.

Series [3] addresses T2, KAI2d15. Put plainly: fluorescent hydrolysis, Michaelis-Menten. In kind it is biochemical.
The target in series [4] is T1, KAI2d15. Put plainly: fluorescent hydrolysis, Michaelis-Menten. It is filed as biochemical.
A further series deals with T4, KAI2d14.
T4 construct: GST fusion (pGEX-4T-1) in E. coli BL21, GST cut with HRV 3C leaving N-terminal Gly-Pro; synthetic codon-optimised gene; genome GenBank JAVIJP000000000
As to the kind of experiment: fluorescent hydrolysis, Michaelis-Menten. It is filed as biochemical, Castilleja foliolosa. An excerpt: fluorescent hydrolysis, Michaelis-Menten on KAI2d14 | Michaelis-Menten experiments using the large fluorescent strigolactone analog Yoshimulactone Green (YLG)

A further series deals with T5, KAI2i1.
T5 construct: GST fusion (pGEX-4T-1) in E. coli BL21, GST cut with HRV 3C leaving N-terminal Gly-Pro; synthetic codon-optimised gene; genome GenBank JAVIJP000000000
Put plainly: fluorescent hydrolysis, Michaelis-Menten. It is filed as biochemical, Castilleja foliolosa. An excerpt:
fluorescent hydrolysis, Michaelis-Menten on KAI2i1 | Michaelis-Menten experiments using the large fluorescent strigolactone analog Yoshimulactone Green (YLG)

Substrate in series [5]: CCOC(=O)c1ccccc1-c1c2ccc(=O)cc-2oc2cc(OC3C=C(C)C(=O)O3)ccc12
Put plainly: fluorescent hydrolysis, Michaelis-Menten. It is filed as biochemical, Castilleja foliolosa. An excerpt:
fluorescent hydrolysis, Michaelis-Menten on KAI2d8 | Michaelis-Menten experiments using the large fluorescent strigolactone analog Yoshimulactone Green (YLG)

Substrate in series [6]: CCOC(=O)c1ccccc1-c1c2ccc(=O)cc-2oc2cc(OC3C=C(C)C(=O)O3)ccc12
Put plainly: fluorescent hydrolysis, Michaelis-Menten. In kind it is biochemical, Castilleja foliolosa. An excerpt: fluorescent hydrolysis, Michaelis-Menten on KAI2d9 | Michaelis-Menten experiments using the large fluorescent strigolactone analog Yoshimulactone Green (YLG)
The source holds these as a separate data set.

As a reminder, the Km is the concentration of substrate that gives half-maximal velocity. The kcat is the number of substrate molecules converted per active site and unit of time at saturation.

Read-outs that look alike come from different tables or passages of the source.

T1 sequence (A0ABD3DF95 entry or part of it): as the sequence (A0ABD3DF95 entry or part of it M143V/M154V/M158V, form open) above, with V143M, V154M, V158M counted along it

For the molecule `CC1=C[C@H](O/C=C2/C(=O)O[C@@H]3C4=C(CCCC4(C)C)C[C@H]23)OC1=O` [5-deoxystrigol], the “differential scanning fluorimetry, SYPRO Orange” value was “DSF experiments with four different strigolactone molecules, testing both the variant and the wild-type protein” on KAI2d15 [1]; “mutant protein showed destabilization at lower ligand concentrations when GR24 or 5-deoxystrigol were present” on KAI2d15 [2].
Turning to `CC1=C[C@H](O/C=C2/C(=O)O[C@@H]3c4ccccc4C[C@H]23)OC1=O` [GR24 5DO], the “differential scanning fluorimetry, SYPRO Orange” value is reported as “A weaker but discernible destabilization was noted with KAI2d8” at KAI2d8 and “mutant protein showed destabilization at lower ligand concentrations when GR24 or 5-deoxystrigol were present” on KAI2d15 [2] (printed only as GR24).
As for `CCOC(=O)c1ccccc1-c1c2ccc(=O)cc-2oc2cc(OC3C=C(C)C(=O)O3)ccc12` (stereo not shown) [Yoshimulactone Green], the Km on KAI2d15 [3] came to 2.4 µM; at KAI2d15 [4], 0.8 µM; in the series on KAI2d14, 1.1 ± 0.3 µM; in the series on KAI2i1 it was 3.1 ± 0.7 µM.
`CC1=CC(OC=C2C(=O)OC3C4=C(CCCC4(C)C)C(O)C23)OC1=O` (stereo not shown) [orobanchol]: the “differential scanning fluorimetry, SYPRO Orange” value on KAI2d15 [1] was “wild-type protein destabilized at lower concentrations of strigol or orobanchol”; on KAI2d15 [2] it was “DSF experiments with four different strigolactone molecules, testing both the variant and the wild-type protein”.
On to `CC1=C[C@H](O/C=C2/C(=O)O[C@@H]3C4=C(C[C@H]23)[C@@H](O)CCC4(C)C)OC1=O` [strigol], for which the “differential scanning fluorimetry, SYPRO Orange” value was “wild-type protein destabilized at lower concentrations of strigol or orobanchol” at KAI2d15 [1]; “DSF experiments with four different strigolactone molecules, testing both the variant and the wild-type protein” at KAI2d15 [2].

B1: KAI2d8 (Castilleja foliolosa) (protein)
chain: MSKVGAAHNVRVLGSGKTTIVLGHGFGTDQSVWRHLVPHLVDQYRVLLYDNMGAGTTNADHYDFDRYSTTGLEGHVSDLITILDEFNVGKCIFVGHSLSPLAAMIASISRPDMFHKVIILSSTPRDVEHCGLQMWTRAGTSRPVSCSTGWKTNYKTTIRGMPKFAIGSDSSVAVQEFTQMLESLRPDITLSTIRALHKYDVRPLLSQVTVPCHIIHSSKDNGVPVAAAEYLHQHLGGKSVLEVMPVEGHLPHLSSPEITNQVLLRHIHLDIADRA
notes: GST fusion (pGEX-4T-1) in E. coli BL21, GST cut with HRV 3C leaving N-terminal Gly-Pro; synthetic codon-optimised gene; genome GenBank JAVIJP000000000
Turning to B1, in series [5], the Km was 6.6 ± 0.2 µM and the kcat amounted to 2780 ± 193 s⁻¹.

B2: KAI2d9 (Castilleja foliolosa) (protein)
chain: MSTVGSAHNVQVIGSGETTVVLGHGYGTDQSVWKNLVPHLVDQYKVLLFDNMGAGTTNPDYFDFERYSTLEGYAYDLIAILEEFNVHKCIYVGHSMSAIAGAIASIFRPDLFHKLIMICASPRLTNTGDYYGGFKQEELEQLSGAMESNFQSMAMGRAPLVIGSDLESEAVQEYCRTLFNMRPDISFSVVRTIFALDMRPFLPQVTVPCHIIQSSKDIYVPLSVGEYLHQNLGGKSIVEVMPTQGHLPHLSAPEVTNPVLLRHIQQDIADA
notes: as for B1
On to B2, for which, in series [6], the Km stood at 0.5 ± 0.1 µM and the catalytic constant (kcat) was 600 ± 49 s⁻¹.
